{"source": "patent US6596722B2", "about": "“Piperidine, tetrahydropyridine and piperazine derivatives, their preparation and use” (H. Lundbeck A/S, priority 1999, dated 2003)", "key": {"[1]": {"target": "T1, human 5-HT1A receptors (Homo sapiens, UniProt P08908)", "T1 construct": "expressed in transfected cells; host or cells: HeLa cells (HA7)", "T1 sequence (P08908 1-422)": "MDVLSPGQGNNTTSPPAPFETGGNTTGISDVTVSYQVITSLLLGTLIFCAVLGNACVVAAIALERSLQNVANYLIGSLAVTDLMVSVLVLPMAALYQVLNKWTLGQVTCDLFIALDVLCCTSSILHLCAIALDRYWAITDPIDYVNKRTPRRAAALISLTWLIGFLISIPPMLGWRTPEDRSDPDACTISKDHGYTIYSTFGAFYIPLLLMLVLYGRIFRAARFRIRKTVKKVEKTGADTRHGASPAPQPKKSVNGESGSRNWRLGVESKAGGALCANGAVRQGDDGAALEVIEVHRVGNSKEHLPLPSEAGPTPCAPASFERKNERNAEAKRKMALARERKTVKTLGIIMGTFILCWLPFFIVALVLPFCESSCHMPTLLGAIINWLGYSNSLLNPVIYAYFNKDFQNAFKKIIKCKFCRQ", "assay": "Inhibition of 3H-5-CT binding to human 5-HT1A receptors", "procedure": "Inhibition of ^3H-5-CT Binding to Human 5-HT1A Receptors.\nHuman 5-HT1A receptors (40 μg of cell homogenate) were incubated for 15 minutes at 37° C. in 50 mM Tris buffer at pH 7.7 in the presence of ^3H-5-CT. Non-specific binding was determined by including 10 μM of metergoline. The reaction was terminated by rapid filtration through Unifilter GF/B filters on a Tomtec Cell Harvester. Filters were counted in a Packard Top Counter."}, "[2]": {"target": "T2, 3H-5-HT uptake into whole rat brain synaptosomes (serotonin reuptake) (Rattus norvegicus, UniProt P31652)", "T2 construct": "from tissue; host or cells: whole rat brain synaptosomes", "T2 sequence (P31652 whole entry)": "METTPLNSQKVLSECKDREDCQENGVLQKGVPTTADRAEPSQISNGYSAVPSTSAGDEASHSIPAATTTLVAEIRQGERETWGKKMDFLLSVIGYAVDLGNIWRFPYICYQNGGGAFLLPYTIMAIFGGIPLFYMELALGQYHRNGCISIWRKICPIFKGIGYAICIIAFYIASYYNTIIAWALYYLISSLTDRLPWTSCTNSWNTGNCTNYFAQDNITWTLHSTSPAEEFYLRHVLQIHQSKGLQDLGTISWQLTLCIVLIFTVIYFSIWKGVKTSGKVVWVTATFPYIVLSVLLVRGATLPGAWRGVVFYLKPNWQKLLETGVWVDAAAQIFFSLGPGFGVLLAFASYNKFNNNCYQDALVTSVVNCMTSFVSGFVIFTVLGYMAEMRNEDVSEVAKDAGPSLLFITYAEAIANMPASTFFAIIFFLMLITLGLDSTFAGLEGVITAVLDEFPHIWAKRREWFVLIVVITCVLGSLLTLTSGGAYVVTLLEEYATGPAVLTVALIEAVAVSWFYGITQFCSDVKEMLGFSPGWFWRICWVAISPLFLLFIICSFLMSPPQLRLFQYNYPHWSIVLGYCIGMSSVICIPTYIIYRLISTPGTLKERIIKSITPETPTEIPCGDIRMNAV", "assay": "Inhibition of 3H-5-HT uptake into rat brain synaptosomes", "assay_type": "biochemical", "procedure": "Inhibition of ^3H-5-HT Uptake Into Rat Brain Synaptosomes.\nUsing this method, the ability of drugs to inhibit the accumulation of ^3H-5-HT into whole rat brain synaptosomes is determined in vitro."}, "[3]": {"target": "T3, cloned 5-HT1A receptors stably expressed in transfected HeLa cells (HA7) (Homo sapiens, UniProt P08908)", "T3 construct": "expressed in transfected cells; host or cells: HeLa cells (HA7)", "T3 sequence (P08908 1-422)": "T1 sequence (P08908 1-422)", "assay": "5-HT1A antagonistic activity: antagonism of 5-HT induced inhibition of forskolin induced cAMP accumulation", "assay_type": "cell-based", "details": "HeLa cells (HA7) expressing cloned 5-HT1A receptors", "procedure": "The assay was performed as a modification of the method described by Pauwels, P. J. et al, Biochem. Pharmacol. 1993, 45, 375."}, "[4]": {"details": "cloned human 5-HT1A receptors in HeLa cells (HA7) homogenate, 15 minutes at 37° C., pH 7.7"}, "[5]": {"details": "3H-5-HT accumulation into whole rat brain synaptosomes, in vitro, read-out: Inhibition of serotonin reuptake IC50"}}, "note": "Counter-ions that a name gives are not always drawn. Like-named read-outs stand apart in the source and are kept apart here.", "data": [{"smiles": "Fc1ccc2c(CCCN3CCN(c4cccc5c4OCCO5)CC3)noc2c1", "note": "(as salt: fumarate) [Compound 3b, 1-[1,4-Benzodioxan-5-yl]-4-[3-(6-fluorobenzo[1,2]isoxazol-3-yl)-1-propyl]piperazine]", "values": [{"measurement": "melting point", "value": "187 to 189", "unit": "°C"}]}, {"smiles": "C(=CC1CCc2ccccc21)CCN1CCN(c2cccc3c2OCCO3)CC1", "note": "(stereo not drawn) (as salt: oxalate) [Compound 1b, 1-[1,4-Benzodioxan-5-yl]-4-[1-(indan-1-yl)-1-buten-4-yl]piperazine]", "values": [{"measurement": "melting point", "value": "154 to 157", "unit": "°C"}]}, {"smiles": "c1ccc2c(c1)CCC2CCCCN1CCN(c2cccc3c2OCCO3)CC1", "note": "(stereo not drawn) (as salt: oxalate) [Compound 1c, 1-[1,4-Benzodioxan-5-yl]-4-[1-(indan-1-yl)-4-butyl]piperazine]", "values": [{"measurement": "melting point", "value": "154 to 155", "unit": "°C"}]}, {"smiles": "Clc1ccc2c(CCN3CCN(c4cccc5c4OCCO5)CC3)n[nH]c2c1", "note": "(as salt: oxalate) [Compound 2b, 1-[1,4-Benzodioxan-5-yl]-4-[2-(6-chloroindazol-3-yl)ethyl]piperazine]", "values": [{"measurement": "melting point", "value": "111 to 113", "unit": "°C"}]}, {"smiles": "Cc1cccc2occ(CCN3CCN(c4cccc5c4OCCO5)CC3)c12", "note": "(as salt: oxalate) [Compound 3c, 1-[1,4-Benzodioxan-5-yl]-4-[2-(4-methylbenzofuran-3-yl)ethyl]piperazine]", "values": [{"measurement": "melting point", "value": "204 to 206", "unit": "°C"}]}, {"smiles": "Clc1ccc2occ(CCN3CCN(c4cccc5c4OCCO5)CC3)c2c1", "note": "(as salt: oxalate) [Compound 3d, 1-[1,4-Benzodioxan-5-yl]-4-[2-(5-chlorobenzofuran-3-yl)ethyl]piperazine]", "values": [{"measurement": "melting point", "value": "206 to 208", "unit": "°C"}]}, {"smiles": "Cc1ccc2c(CCN3CCN(c4cccc5c4OCCO5)CC3)coc2c1", "note": "(as salt: oxalate) [Compound 3e, 1-[1,4-Benzodioxan-5-yl]-4-[2-(6-methylbenzofuran-3-yl)ethyl]piperazine]", "values": [{"measurement": "melting point", "value": "174 to 176", "unit": "°C"}]}, {"smiles": "c1cc2c(c(N3CCN(CCc4coc5ccccc45)CC3)c1)OCCO2", "note": "(as salt: oxalate) [Compound 3f, 1-[1,4-Benzodioxan-5-yl]-4-[2-(benzofuran-3-yl)ethyl]piperazine]", "values": [{"measurement": "melting point", "value": "206 to 208", "unit": "°C"}]}, {"smiles": "Clc1ccc2occ(CCN3CC=C(c4cccc5c4OCC5)CC3)c2c1", "note": "(as salt: oxalate) [Compound 3g, 1-[2-(5-chlorobenzofuran-3-yl)ethyl]-4-[2,3-dihydrobenzofuran-7-yl]-1,2,3,6-tetrahydropyridine]", "values": [{"measurement": "melting point", "value": "187 to 202", "unit": "°C"}]}, {"smiles": "Fc1ccc2occ(CCN3CC=C(c4cccc5ccoc45)CC3)c2c1", "note": "(as salt: oxalate) [Compound 3h, 4-[Benzofuran-7-yl]-1-[2-(5-fluorobenzofuran-3-yl)ethyl]-1,2,3,6-tetrahydropyridine]", "values": [{"measurement": "melting point", "value": "201 to 211", "unit": "°C"}]}, {"smiles": "Clc1cccc2c(CCN3CCN(c4cccc5c4OCCO5)CC3)coc12", "note": "(as salt: oxalate) [Compound 3i, 1-[1,4-Benzodioxan-5-yl]-4-[2-(7-chlorobenzofuran-3-yl)ethyl]piperazine]", "values": [{"measurement": "melting point", "value": "190 to 192", "unit": "°C"}]}, {"smiles": "C1=CC(CCCCN2CCN(c3cccc4c3OCCO4)CC2)c2ccccc21", "note": "(stereo not drawn) [Compound 1a, 1-[1,4-Benzodioxan-5-yl]-4-[1-(inden-1-yl)-4-butyl]piperazine]", "values": [{"measurement": "IC50", "setting": "[1]; [4]", "value": 1.7, "unit": "nM"}, {"measurement": "IC50", "setting": "[2]; [5]", "value": 61, "unit": "nM"}, {"measurement": "IC50", "setting": "[3]", "value": 170, "unit": "nM"}]}, {"smiles": "C(=CC1CCc2ccccc21)CCN1CCN(c2cccc3c2OCCO3)CC1", "note": "(stereo not drawn) [Compound 1b, 1-[1,4-Benzodioxan-5-yl]-4-[1-(indan-1-yl)-1-buten-4-yl]piperazine]", "values": [{"measurement": "IC50", "setting": "[1]; [4]", "value": 6.1, "unit": "nM"}]}, {"smiles": "c1ccc2c(c1)CCC2CCCCN1CCN(c2cccc3c2OCCO3)CC1", "note": "(stereo not drawn) [Compound 1c, 1-[1,4-Benzodioxan-5-yl]-4-[1-(indan-1-yl)-4-butyl]piperazine]", "values": [{"measurement": "IC50", "setting": "[1]; [4]", "value": 2.5, "unit": "nM"}, {"measurement": "IC50", "setting": "[2]; [5]", "value": 130, "unit": "nM"}]}, {"smiles": "Fc1ccc2occ(CCN3CCN(c4cccc5c4OCCO5)CC3)c2c1", "note": "[Compound 2a, 1-[1,4-Benzodioxan-5-yl]-4-[2-(5-fluorobenzofuran-3-yl)ethyl]piperazine]", "values": [{"measurement": "IC50", "setting": "[1]; [4]", "value": 14, "unit": "nM"}, {"measurement": "IC50", "setting": "[2]; [5]", "value": 0.69, "unit": "nM"}, {"measurement": "IC50", "setting": "[3]", "value": 100, "unit": "nM"}]}, {"smiles": "Clc1ccc2c(CCN3CCN(c4cccc5c4OCCO5)CC3)n[nH]c2c1", "note": "[Compound 2b, 1-[1,4-Benzodioxan-5-yl]-4-[2-(6-chloroindazol-3-yl)ethyl]piperazine]", "values": [{"measurement": "IC50", "setting": "[1]; [4]", "value": 9.3, "unit": "nM"}, {"measurement": "IC50", "setting": "[2]; [5]", "value": 160, "unit": "nM"}]}, {"smiles": "Fc1ccc2occ(CCN3CCN(c4cccc5ccoc45)CC3)c2c1", "note": "[Compound 3a, 1-[Benzofuran-7-yl]-4-[2-(5-fluorobenzofuran-3-yl)ethyl]piperazine]", "values": [{"measurement": "IC50", "setting": "[1]; [4]", "value": 29, "unit": "nM"}, {"measurement": "IC50", "setting": "[2]; [5]", "value": 170, "unit": "nM"}]}, {"smiles": "Fc1ccc2c(CCCN3CCN(c4cccc5c4OCCO5)CC3)noc2c1", "note": "[Compound 3b, 1-[1,4-Benzodioxan-5-yl]-4-[3-(6-fluorobenzo[1,2]isoxazol-3-yl)-1-propyl]piperazine]", "values": [{"measurement": "IC50", "setting": "[1]; [4]", "value": 7.5, "unit": "nM"}, {"measurement": "IC50", "setting": "[2]; [5]", "value": 240, "unit": "nM"}, {"measurement": "IC50", "setting": "[3]", "value": 74, "unit": "nM"}]}, {"smiles": "Cc1cccc2occ(CCN3CCN(c4cccc5c4OCCO5)CC3)c12", "note": "[Compound 3c, 1-[1,4-Benzodioxan-5-yl]-4-[2-(4-methylbenzofuran-3-yl)ethyl]piperazine]", "values": [{"measurement": "IC50", "setting": "[1]; [4]", "value": 19, "unit": "nM"}, {"measurement": "IC50", "setting": "[2]; [5]", "value": 11, "unit": "nM"}, {"measurement": "IC50", "setting": "[3]", "value": 2300, "unit": "nM"}]}, {"smiles": "Clc1ccc2occ(CCN3CCN(c4cccc5c4OCCO5)CC3)c2c1", "note": "[Compound 3d, 1-[1,4-Benzodioxan-5-yl]-4-[2-(5-chlorobenzofuran-3-yl)ethyl]piperazine]", "values": [{"measurement": "IC50", "setting": "[1]; [4]", "value": 18, "unit": "nM"}, {"measurement": "IC50", "setting": "[2]; [5]", "value": 34, "unit": "nM"}, {"measurement": "IC50", "setting": "[3]", "value": 550, "unit": "nM"}]}, {"smiles": "Cc1ccc2c(CCN3CCN(c4cccc5c4OCCO5)CC3)coc2c1", "note": "[Compound 3e, 1-[1,4-Benzodioxan-5-yl]-4-[2-(6-methylbenzofuran-3-yl)ethyl]piperazine]", "values": [{"measurement": "IC50", "setting": "[1]; [4]", "value": 8.8, "unit": "nM"}, {"measurement": "IC50", "setting": "[2]; [5]", "value": 58, "unit": "nM"}, {"measurement": "IC50", "setting": "[3]", "value": 1400, "unit": "nM"}]}, {"smiles": "c1cc2c(c(N3CCN(CCc4coc5ccccc45)CC3)c1)OCCO2", "note": "[Compound 3f, 1-[1,4-Benzodioxan-5-yl]-4-[2-(benzofuran-3-yl)ethyl]piperazine]", "values": [{"measurement": "IC50", "setting": "[1]", "value": 8.3, "unit": "nM"}, {"measurement": "IC50", "setting": "[2]", "value": 12, "unit": "nM"}, {"measurement": "IC50", "setting": "[3]", "value": 290, "unit": "nM"}]}, {"smiles": "Clc1ccc2occ(CCN3CC=C(c4cccc5c4OCC5)CC3)c2c1", "note": "[Compound 3g, 1-[2-(5-chlorobenzofuran-3-yl)ethyl]-4-[2,3-dihydrobenzofuran-7-yl]-1,2,3,6-tetrahydropyridine]", "values": [{"measurement": "IC50", "setting": "[1]", "value": 24, "unit": "nM"}, {"measurement": "IC50", "setting": "[2]; [5]", "value": 160, "unit": "nM"}]}, {"smiles": "Fc1ccc2occ(CCN3CC=C(c4cccc5ccoc45)CC3)c2c1", "note": "[Compound 3h, 4-[Benzofuran-7-yl]-1-[2-(5-fluorobenzofuran-3-yl)ethyl]-1,2,3,6-tetrahydropyridine]", "values": [{"measurement": "IC50", "setting": "[1]", "value": 11, "unit": "nM"}, {"measurement": "IC50", "setting": "[2]", "value": 43, "unit": "nM"}]}, {"smiles": "Clc1cccc2c(CCN3CCN(c4cccc5c4OCCO5)CC3)coc12", "note": "[Compound 3i, 1-[1,4-Benzodioxan-5-yl]-4-[2-(7-chlorobenzofuran-3-yl)ethyl]piperazine]", "values": [{"measurement": "IC50", "setting": "[1]; [4]", "value": 2.1, "unit": "nM"}, {"measurement": "IC50", "setting": "[2]; [5]", "value": 1.5, "unit": "nM"}, {"measurement": "IC50", "setting": "[3]", "value": 1500, "unit": "nM"}]}, {"smiles": "Cc1ccc(Cl)c2occ(CCCN3CCN(c4cccc5c4OCCO5)CC3)c12", "note": "[Compound 4a, 1-[1,4-Benzodioxan-5-yl]-4-[3-(7-chloro-4-methylbenzofuran-3-yl)-1-propyl]piperazine]", "values": [{"measurement": "IC50", "setting": "[2]; [5]", "value": 32, "unit": "nM"}, {"measurement": "IC50", "setting": "[3]", "value": 260, "unit": "nM"}]}, {"smiles": "Cc1cccc2occ(CCCN3CCN(c4cccc5c4OCCO5)CC3)c12", "note": "[Compound 5a, 1-[1,4-Benzodioxan-5-yl]-4-[3-(4-methylbenzofuran-3-yl)-1-propyl]piperazine]", "values": [{"measurement": "IC50", "setting": "[1]; [4]", "value": 2.9, "unit": "nM"}, {"measurement": "IC50", "setting": "[2]; [5]", "value": 15, "unit": "nM"}, {"measurement": "IC50", "setting": "[3]", "value": 390, "unit": "nM"}]}]}
